# Results: patent US11179363B2, “Non-steroidal selective glucocorticoid receptor agonistic modulators (SEGRAMs) and uses thereof” (ASSOCIATION POUR LA RECHERCHE À L'IGBMC (ARI), priority 2017, dated 2021)
# How the values were obtained:
# [1] = test system: thymus, spleen, adrenal gland and kidney; experiment: Organ weights (thymus, spleen, adrenal gland, kidney) after three-month treatment; assay type: in vivo, B6 male mice; settings: s.c. 1 mg/kg daily, three months
# Protocol: B6 male mice (8-week-old) were daily subjected for three months to a subcutaneous injection of either vehicle (NaCl 0.9%), Dex, CpdX, CpdX(eA), CpdX(eB), CpdX-D3, CpdX-D3(eA) or CpdX-D3(eB) (1 mg/kg body weight, diluted in vehicle). Following these treatments, four organs (thymus, spleen, adrenal gland and kidney) were harvested and weighted.
# [2] = test system: HDM-induced asthma-like allergic lung inflammation; experiment: House dust mite (HDM)-induced asthma-like allergic lung inflammation; assay type: in vivo, mice
# Protocol: Glucocorticoids have been (Pearlman et al., 1997. Ann Allergy Asthma Immunol. 78(4):356-62), and are still, widely used in asthma therapy. In order to investigate the possible CpdX anti-inflammatory activity in vivo, mice were sensitized and challenged with either ovalbumin (OVA) or house dust mite (HDM) to induce an asthma-like allergic lung inflammation.
# Mice were intranasally sensitized with 1 μg HDM from D0 to D4, and further intranasally sensitized with 10 μg HDM on D14 and D21. Mice were then subdivided into eight groups, and on D29, D30 and D31, each mouse was again intranasally challenged with […]. The first seven groups received respectively 0.5 mg/kg of body weight of Dex, CpdX, CpdX(eA), CpdX(eB), CpdX-D3, CpdX-D3(eA) or CpdX-D3(eB), while the eighth group served as a control.
# On D32, the airway responsiveness was invasively determined using a computer-controlled small animal ventilator (FlexVent® system, SCIREQ Technologies). Mice were anesthetized with xylazine (15 mg/kg, i.p.), followed 15 minutes later by an i.p. injection of pentobarbital sodium (54 mg/kg). An 18-gauge metal needle was then inserted into the trachea, each mouse was connected to the FlexVent® ventilator and quasi-sinusoidally ventilated with a tidal volume of 10 mL/kg at a frequency of 150 breaths/minute and a positive end-expiratory pressure of 2 cm H2O, in order to achieve a mean lung volume close to spontaneous breathing. After baseline measurement, mice were challenged for 10 seconds with a saline aerosol and, at 4.5-minute intervals, with 50 mg/mL methacholine. Airway resistance and elastance were expressed as cmH2O.s/mL and cmH2O/mL respectively.
# The lung allergic inflammation was assessed by examination of the bronchoalveolar lavage (BAL) fluid from each of these HDM-challenged mice. The total BAL cells, eosinophils, neutrophils, macrophages and lymphocytes were counted. RNA transcripts were extracted from lung samples. RNA transcripts of IL-1β, IL-6, IL-4, IL-5, IL-13, Eotaxin, CCL4, IL-10 and TNFα were analyzed by q-RT-PCR. Lung tissues were harvested and histological (with H&E staining) and immunohistochemical analyses were also carried out (with eosinophil-specific and neutrophil-specific antibodies).
# [3] = test system: OVA-induced allergic conjunctivitis; experiment: Ovalbumin (OVA)-induced allergic conjunctivitis; assay type: in vivo, Balb/C mice; settings: 0.1% instillation D22 to D24, 20 minutes after the last OVA challenge
# Protocol: To investigate the anti-inflammatory effect of CpdX or CpdX-D3 on an allergic conjunctivitis, Balb/C mice were intraperitoneally sensitized with 50 μg OVA with alum on both days D1 and D8, and then challenged from D15 to D21 with 250 μg OVA in 5 μL of sterilized vehicle (0.9% NaCl), which were directly instilled onto the conjunctival sac. From D22 to D24, mice were divided into several groups, and received instillations with either OVA alone, OVA together with 0.1% of either Dex, CpdX, CpdX(eA), CpdX(eB), CpdX-D3, CpdX-D3(eA) or CpdX-D3(eB).
# The clinical appearance of mouse eyes was evaluated 20 minutes after the last instillation on D24. Clinical signs (conjunctival hyperemia, lid edema and tearing) were scored to evaluate the occurrence and severity of conjunctivitis as described by Gimenes et al. (2015. Experimental Eye Research 134:24-32). Parameters were graded on a scale ranging from 0 to 3, (0=absence, 1=mild, 2=moderate, and 3=severe symptoms), each animal receiving a total clinical score ranging from 0 to 9. The data were expressed as mean±SEM with at least four mice per treatment.
# [4] = test system: collagen-induced Th17 rheumatoid arthritis-like inflammation; experiment: Collagen-induced arthritis (CIA); assay type: in vivo, mice (DBA-1 strain); settings: for hind paw thickness at the ankle level: i.p. 1 mg/kg daily for 10 days (T0 to T10); for RNA transcripts of pro-inflammatory genes in hind paws (IL-1β, IL-6, IL-17a, IL-17f, TNFα): i.p. 1 mg/kg daily, T10, q-RT-PCR
# Protocol: Mice were treated with collagen to induce a Th17 rheumatoid arthritis-like inflammation as described by Inglis et al. (2007. Arthritis Res Ther. 9(5):R113) and Geboes et al. (2009. Arthritis Rheum. 60(2):390-5).
# Male mice (DBA-1 strain) were subcutaneously-injected with 100 μg collagen per mouse on D0. The hind paw thickness at the ankle level was regularly measured with a caliper. When the ankle thickness had reached around 4 mm (T0, i.e., 30 to 50 days after the collagen injection on D0), mice were daily intraperitoneally-injected for 10 days (T0 to T10) with either vehicle (NaCl 0.9%), Dex, CpdX, CpdX(eA), CpdX(eB), CpdX-D3, CpdX-D3(eA) or CpdX-D3(eB) (1 mg/kg body weight diluted in NaCl 0.9%), and the hind paw thickness at the ankle level was daily measured with a caliper. Pictures of the hind paws were taken at days T0 and T10 (before and after the treatment with either Vehicle, Dex, CpdX, CpdX(eA), CpdX(eB), CpdX-D3, CpdX-D3(eA) or CpdX-D3(eB)), in order to assess the course of swelling.
# RNA transcripts were extracted from whole hind paws of collagen-untreated and collagen-treated mice at T0 and T10. IL-1β, IL-6, IL-17a, IL-17f and TNFα transcripts were analyzed by q-RT-PCR.
# [5] = test system: DSS-induced Th17 ulcerative colitis; experiment: Dextran sodium sulfate (DSS)-induced ulcerative colitis; assay type: in vivo, Balb/C mice; settings: for pro-inflammatory genes overexpressed in DSS-induced ulcerative colitis (IL-1β, IL-6, IL-17a, IL-17f, TSLP, MMP13): colon, q-RT-PCR, D14; for colonic villus/crypt structure (histology) / mucosal and submucosal cell infiltration (histology): i.p. 1 mg/kg on D11, D12, D13, 3% DSS 13 days
# Protocol: To investigate the anti-inflammatory activity of CpdX and CpdX-D3 on a Th17 ulcerative colitis, Balb/C mice were treated with 3% DSS in drinking water for 13 days, with or without an intraperitoneal administration of either Dex, CpdX, CpdX(eA), CpdX(eB), CpdX-D3, CpdX-D3(eA) or CpdX-D3(eB) (1 mg/kg of body weight) on D11, D12 and D13.
# At D14, RNA transcripts were extracted from mouse colons. IL-1β, IL-6, IL-17a, IL-17f, TSLP and MMP13 transcripts were analyzed by q-RT-PCR. Colon samples were also harvested for histological analyses (with H&E staining).
# [6] = HDM model, 0.5 mg/kg, D32, vs control group
# [7] = HDM model, lung paraffin sections
# [8] = methacholine 50 mg/mL, FlexVent
# [9] = HDM model, 0.5 mg/kg, D32, vs control group; 0.5 mg/kg
SMILES,thymus apoptosis (thymus weight) [1],"number of neutrophils and macrophages in BAL ([2]; HDM model, 0.5 mg/kg, D32)","total number of BAL cells, eosinophils and lymphocytes [2, 6]","eosinophils in lung (immunohistochemistry, eosinophil-specific antibodies) ([2]; HDM model, data not shown)","lung expression of IL-10 and TNFα ([2]; HDM model, data not shown)","neutrophils in lung (immunohistochemistry, neutrophil-specific antibody) ([2]; HDM model, data not shown)","peribronchiolar and perivascular inflammatory cell infiltration (histology) [2, 7]","lung expression of pro-inflammatory genes (IL-1β, IL-6, IL-4, IL-5, IL-13, Eotaxin, CCL4) ([2]; HDM model, q-RT-PCR)","HDM-induced airway hyperresponsiveness (AHR), airway resistance and elastance [2, 8]","clinical signs of allergic conjunctivitis (conjunctival hyperemia, lid edema and tearing) [3]",hind paw thickness at the ankle level [4],"RNA transcripts of pro-inflammatory genes in hind paws (IL-1β, IL-6, IL-17a, IL-17f, TNFα) [4]","pro-inflammatory genes overexpressed in DSS-induced ulcerative colitis (IL-1β, IL-6, IL-17a, IL-17f, TSLP, MMP13) [5]",colonic villus/crypt structure (histology) [5],mucosal and submucosal cell infiltration (histology) [5],"total number of BAL cells, eosinophils and lymphocytes [2, 9]","RNA transcripts of pro-inflammatory genes in hind paws (IL-1β, IL-6, IL-17a, IL-17f, TNFα) ([4]; 1 mg/kg)"
"COc1ccc(F)cc1C(C)(C)CC(O)(CNc1ccc2c(c1)COC2=O)C(F)(F)F (racemic) [CpdX, 5-[4-(5-fluoro-2-methoxyphenyl)-2-hydroxy-4-methyl-2-(trifluoromethyl)pentylamino]-isobenzofuran-1(3H)-one]",did not result in any significant thymus apoptosis,No significant change,significantly decreased,decreased,not affected,no significant change,strongly decreased,significantly and similarly decreased,similarly reduced,considerably reduced,rapid decrease,similarly repressed,similarly repressed,almost reestablished,significantly decreased,,
"[2H]C([2H])([2H])Oc1ccc(F)cc1C(C)(C)CC(O)(CNc1ccc2c(c1)COC2=O)C(F)(F)F (racemic) [CpdX-D3, 5-{4-[2-(methoxy-D3)-5-fluorophenyl]-2-hydroxy-4-methyl-2-(trifluoromethyl)pentylamino}isobenzofuran-1(3H)-one]",did not result in any significant thymus apoptosis,No significant change,significantly decreased,decreased,not affected,no significant change,strongly decreased,significantly and similarly decreased,similarly reduced,considerably reduced,rapid decrease,similarly repressed,similarly repressed,almost reestablished,significantly decreased,,
"COc1ccc(F)cc1C(C)(C)CC(O)(CNc1ccc2c(c1)COC2=O)C(F)(F)F (single isomer, unassigned; enantiomer a) [CpdX(eA), 5-[4-(5-fluoro-2-methoxyphenyl)-2-hydroxy-4-methyl-2-(trifluoromethyl)-pentylamino]isobenzofuran-1(3H)-one enantiomer A]",did not result in any significant thymus apoptosis,,,,,,decreased,efficiently decreased,reduced,considerably reduced,,,similarly repressed,almost reestablished,significantly decreased,efficiently decreased,similarly repressed
"[2H]C([2H])([2H])Oc1ccc(F)cc1C(C)(C)CC(O)(CNc1ccc2c(c1)COC2=O)C(F)(F)F (single isomer, unassigned; enantiomer a) [CpdX-D3(eA), 5-{4-[2-(methoxy-D3)-5-fluorophenyl]-2-hydroxy-4-methyl-2-(trifluoromethyl)pentylamino}isobenzofuran-1(3H)-one enantiomer A]",did not result in any significant thymus apoptosis,,,,,,decreased,efficiently decreased,,considerably reduced,,,similarly repressed,almost reestablished,significantly decreased,efficiently decreased,similarly repressed
